{
  "source": "patent US20250381194A1",
  "about": "“METHODS FOR MITIGATING THE EFFECTS OF LOW-LEVEL BLASTS THROUGH PHOSPHODIESTERASE-5 INHIBITION” (University of Kentucky Research Foundation, priority 2024, published 2025)",
  "key": {"[1]": {"system": "rat brain microvascular endothelial cells", "experiment": "Mitochondrial Network Analysis (MiNA) with mitotracker green in cell culture", "assay_type": "cell-based", "conditions": "sildenafil 1 μM in 1% DMSO overnight vs vehicle", "excerpt": "Mitochondrial Mechanisms Targeting mbTBI. […] Mitochondrial Network Analysis (MiNA) workflow in ImageJ was used to examine mitochondrial parameters."}, "PGC-1α": {"system": "PGC-1α", "experiment": "Western blot for PGC-1α in cortical and hippocampal tissue seven days post-rmbTBI", "assay_type": "in vivo, Sprague Dawley rats", "conditions": "vs rmbTBI vehicle; for PGC-1α expression in cortex tissue: rmbTBI (2 blasts, 24 h interval)", "from_the_text": "Blast Exposure. The MBD consists of a cylindrical steel tube, 12-inch internal diameter, separated into a 19-ft. expansion chamber and a 2.5-ft compression chamber. For these studies, compressed helium-driven mode was used to replicate military blast exposure. A 10-mil-thick (0.254 mm) biaxially-oriented polyethylene terephthalate (Mylar) membrane separates the two chambers. The Mylar membrane was actively ruptured by a 4-point blade affixed to a pneumatic cylinder to achieve desired static overpressure. The shock wave was recorded by face-on, reflected pressure (Kulite pitot-static pressure probe) and wall-mounted side-on static pressure sensors (Kulite). Data from each piezoresistive sensor was routed through sensor cables before being captured by the state-of-the-art TMX-18 (AstroNova™ Test & Measurement, 800 kHz sampling rate) and analyzed using AstroView. The rat subjects were secured in plastic netting to minimize but allow free body motion without neck flexion. The rat subjects were positioned 30 inches inside the tube and with lateral head exposure. An overpressure of 11 PSI was utilized, which is in the range where neurological disruption has been observed in operations involving breaching activity. In the studies underlying this example, Sprague Dawley rats were subjected to repeated blast exposure (2 blasts at 24 h interval). Tissue Isolation. For downstream western blot, whole brain homogenate was collected during brain capillary isolation and mixed with 10× RIPA buffer (150 mM NaCl, 1% Triton X-100, 0.5% sodium deoxycholate, 0.1% SDS, 50 mM Tris, pH 8.0) supplemented with protease inhibitors. The samples were snap-frozen in liquid nitrogen and stored at −80° C. until further use. Mitochondrial Biogenesis and Astrocyte Homeostasis. […] Expression of peroxisome proliferator-activated receptor gamma coactivator 1-alpha (PGC-1α), glial fibrillary acidic protein (GFAP), and β-actin was assessed in cortical tissue using western blot. Cortical tissue was extracted and probed seven days post-rmbTBI. Expression of PGC-1a and β-actin was also assessed using in the hippocampal tissue of subjects using western blot. Hippocampal tissue was extracted and probed seven-days post-rmbTBI."}, "GFAP": {"system": "GFAP", "experiment": "Western blot for GFAP in cortical tissue seven days post-rmbTBI", "assay_type": "in vivo, Sprague Dawley rats", "conditions": "rmbTBI (2 blasts, 24 h interval), vs rmbTBI vehicle", "from_the_text": "Blast Exposure. The MBD consists of a cylindrical steel tube, 12-inch internal diameter, separated into a 19-ft. expansion chamber and a 2.5-ft compression chamber. For these studies, compressed helium-driven mode was used to replicate military blast exposure. A 10-mil-thick (0.254 mm) biaxially-oriented polyethylene terephthalate (Mylar) membrane separates the two chambers. The Mylar membrane was actively ruptured by a 4-point blade affixed to a pneumatic cylinder to achieve desired static overpressure. The shock wave was recorded by face-on, reflected pressure (Kulite pitot-static pressure probe) and wall-mounted side-on static pressure sensors (Kulite). Data from each piezoresistive sensor was routed through sensor cables before being captured by the state-of-the-art TMX-18 (AstroNova™ Test & Measurement, 800 kHz sampling rate) and analyzed using AstroView. The rat subjects were secured in plastic netting to minimize but allow free body motion without neck flexion. The rat subjects were positioned 30 inches inside the tube and with lateral head exposure. […] Expression of peroxisome proliferator-activated receptor gamma coactivator 1-alpha (PGC-1α), glial fibrillary acidic protein (GFAP), and β-actin was assessed in cortical tissue using western blot. […] Expression of PGC-1a and β-actin was also assessed using in the hippocampal tissue of subjects using western blot. […]"}, "TOM20": {"system": "TOM20", "experiment": "Capillary-specific mitochondrial content (TOM20 staining) seven days post-rmbTBI", "assay_type": "in vivo, Sprague Dawley rats", "conditions": "20 mg/kg high dose daily to day seven, vs rmbTBI vehicle", "excerpt": "(§1) Blast Exposure. The MBD consists of a cylindrical steel tube, 12-inch internal diameter, separated into a 19-ft. expansion chamber and a 2.5-ft compression chamber. For these studies, compressed helium-driven mode was used to replicate military blast exposure. A 10-mil-thick (0.254 mm) biaxially-oriented polyethylene terephthalate (Mylar) membrane separates the two chambers. The Mylar membrane was actively ruptured by a 4-point blade affixed to a pneumatic cylinder to achieve desired static overpressure. The shock wave was recorded by face-on, reflected pressure (Kulite pitot-static pressure probe) and wall-mounted side-on static pressure sensors (Kulite). Data from each piezoresistive sensor was routed through sensor cables before being captured by the state-of-the-art TMX-18 (AstroNova™ Test & Measurement, 800 kHz sampling rate) and analyzed using AstroView. The rat subjects were secured in plastic netting to minimize but allow free body motion without neck flexion. The rat subjects were positioned 30 inches inside the tube and with lateral head exposure. An overpressure of 11 PSI was utilized, which is in the range where neurological disruption has been observed in operations involving breaching activity. In the studies underlying this example, Sprague Dawley rats were subjected to repeated blast exposure (2 blasts at 24 h interval). Capillary Isolation. […]"}, "ZO-1": {"system": "ZO-1", "experiment": "Tight junction integrity (ZO-1 immunostaining of cortical capillaries) seven days post-rmbTBI", "assay_type": "in vivo, Sprague Dawley rats", "conditions": "20 mg/kg high dose daily to day seven, vs rmbTBI vehicle", "excerpt": "as §1"}, "[2]": {"system": "mitochondrial volume and tight junction proteins in isolated brain capillaries", "experiment": "Correlation of capillary mitochondrial volume (OXPHOS) and ZO-1, chronic delayed sildenafil study", "assay_type": "in vivo, Sprague Dawley rats", "conditions": "20 mg/kg oral gavage daily from 2 to 5 months post-blast; brain capillaries at 5 months post-rmbTBI", "method": "Brain Capillary Isolation and Immunostaining. Half frozen rat brain from all groups was homogenized with isolation buffer (pH7.4 DPBS containing 5.5 mM glucose, 1 mM sodium pyruvate, and 1% BSA). The homogenate was centrifuged at 1000×g for 10 min at 4° C. to remove the supernatant. […] After evaluating the quality and concentration of capillary suspension under a bright field microscope, which may contain small amount of large vessel and cells, the isolated capillary sample was ready for the immunostaining analysis. […]\nThe expression of ZO-1 was quantified by measuring the mean fluorescence intensity by tracing the capillary under NIS-Elements analysis software. The total capillary area was measured by using NIS-Elements. For mitochondrial volume, the OXPHOS fluorescence from Z-stack images was quantified using Imaris (X64 9.6.1) using surface creation tool. […]"}, "[3]": {"system": "cerebral blood flow (CBF)", "experiment": "MRI arterial spin labeling of cerebral blood flow, chronic delayed sildenafil study", "assay_type": "in vivo, Sprague Dawley rats", "conditions": "20 mg/kg daily, 2 and 4.5 months post-rmbTBI, between sham, rmbTBI+vehicle", "method": "Animal Procedure. […] MRI (magnetic resonance imaging) was performed at 1.5 and 4.5 months post-blast. […] At the end of the experiment, rats were euthanized and the brain tissue was collected after transcardial perfusion with PBS (FIG. 24). One hemisphere of the brain was snap frozen with liquid nitrogen for brain capillary isolation while another hemisphere of the brain was fixed with 4% paraformaldehyde (PFA). After 48 hours of fixation, the brain tissue was placed into PBS containing 30% sucrose for 72 hours. The sucrose saturated brain tissue was flash frozen in-25 to −35° C. isopentane and stored at −20° C. or proceeded to sectioning.\nMagnetic Resonance Imaging (MRI). MRI scanning was performed at 1.5 months and 4.5 months post-blast injury. Briefly, rats were placed under anesthesia with 4% isoflurane before placing it in the MRI scanner. Physiological monitoring was recorded every 10 min (with normal range 300-450 bpm) and rat body temperature was maintained while scanning under anesthesia. […] Labeling efficiency was calculated from a pCASL-encoded fast low-angle shot (FLASH) sequence (TR/TE=250/3.5 ms; in plane resolution 182×182 μm2; slice thickness 1.5 mm; flip angle 80° labeling time 200 ms; transit time 0 ms) image of the carotid artery just below the split and 5 mm above the labeling slice. […]"}, "[4]": {"system": "freezing behavior after rmbTBI", "experiment": "Contextual fear conditioning test, chronic delayed sildenafil study", "assay_type": "in vivo, Sprague Dawley rats", "conditions": "20 mg/kg daily; 5 months post-blast; day 1 acquisition, days 2-4 extinction", "description": "Animal Procedure. […] MRI (magnetic resonance imaging) was performed at 1.5 and 4.5 months post-blast. Fear conditioning test was performed at 5 months post-blast. At the end of the experiment, rats were euthanized and the brain tissue was collected after transcardial perfusion with PBS (FIG. 24). One hemisphere of the brain was snap frozen with liquid nitrogen for brain capillary isolation while another hemisphere of the brain was fixed with 4% paraformaldehyde (PFA). After 48 hours of fixation, the brain tissue was placed into PBS containing 30% sucrose for 72 hours. The sucrose saturated brain tissue was flash frozen in-25 to −35° C. isopentane and stored at −20° C. or proceeded to sectioning. Fear Conditioning Test. Contextual Fear Conditioning paradigm was performed over 4 days. On the acquisition day, rats were placed in a foot shock chamber with a camera within a sound-attenuating chamber and were allowed to explore freely for 2 min. After 2 min, a total of 6 electric shocks (0.75 mA, 2 s duration) were delivered at intervals of 60 s through the testing chamber floor, with shock delivery controlled by Med associates Inc. VideoFreeze™ Video Fear Conditioning Software. […] Video footage was later scored for freezing behavior using Med associates Inc. VideoFreeze™ Video Fear Conditioning Software. […]"}, "[5]": {"conditions": "5 mg/kg low dose daily to day seven"}, "[6]": {"conditions": "20 mg/kg high dose daily to day seven"}},
  "note": "“Also recorded” adds a separate entry of the source.",
  "data": [
    {"smiles": "CCCc1nn(C)c2c(=O)[nH]c(-c3cc(S(=O)(=O)N4CCN(C)CC4)ccc3OCC)nc12", "note": "[sildenafil]", "values": [
      {"measurement": "mitochondrial branching", "setting": "[1]", "result": "decreased"},
      {"measurement": "mitochondrial footprint/density", "setting": "[1]", "result": "increased"},
      {"measurement": "PGC-1α expression in cortex tissue", "setting": "PGC-1α; [5]", "result": "increased"},
      {"measurement": "PGC-1α expression in cortex tissue", "setting": "PGC-1α; [6]", "result": "increased"},
      {"measurement": "PGC-1α expression in hippocampal tissue", "setting": "PGC-1α; 20 mg/kg high dose daily to day seven, rmbTBI", "result": "significantly increased"},
      {"measurement": "GFAP expression in cortex tissue", "setting": "GFAP; [5]", "result": "increased"},
      {"measurement": "GFAP expression in cortex tissue", "setting": "GFAP; [6]", "result": "increased"},
      {"measurement": "TOM20 expression / capillary mitochondrial volume", "setting": "TOM20", "result": "significantly increased; also recorded: increased volume"},
      {"measurement": "ZO-1 expression in cortical capillaries", "setting": "ZO-1", "result": "increased; also recorded: non-significantly increased"},
      {"measurement": "correlation between capillary mitochondrial content (OXPHOS) and tight junction integrity (ZO-1)", "setting": "[2]", "result": "significant positive correlation; also recorded: strengthens the correlation"},
      {"measurement": "regional cerebral blood flow (CBF) in cortex, hippocampus and amygdala", "setting": "[3]", "result": "No significant differences"},
      {"measurement": "freezing episodes (fear extinction)", "setting": "[4]", "result": "significant time-related decrease"}
    ]}
  ]
}
